Measured values from US20100280231A1, “WHITENING AGENT COMPRISING EQUOL OR ITS SACCHARIDE DERIVATIVE AS AN EFFECTIVE INGREDIENT” (priority 2007, published 2010).
Where two headings read alike, the source gives them in different places.

Experiments:
[1] = system: skin of the upper arm of volunteers; experiment: Safety test, application on the upper arm of volunteers; settings: 3 parts by weight (equol equivalent) in ethanol/glycerol/water base, 1-cm square, three times a day for three days, five volunteers each, observed for the next week
[2] = system: mouse 3T3-L1 cells differentiated into mature cells; experiment: Test for lipid hydrolysis (glycerol release from mature lipocytes); type: cell-based; settings: for Enhancing effect on lipid hydrolysis: glycerol per cell protein, 6 hours, control 274, * p < 0.05 vs control
Protocol: After the culture supernatant of mouse 3T3-L1 cells cultured under the same condition described above was removed, a regular medium containing 5 μg/ml insulin, 0.25 μM dexamethasone and 0.5 mM 3-isobutyl-1-methylxanthin was added by 1 ml/well, and then the cells were cultured for two days to differentiate into mature cells. After the supernatant was removed, the cells were washed with D-PBS three times and cultured with regular medium for 12 days while replacing the medium every two or three days by 1 ml/well. After the supernatant was removed and the cells were washed with D-PBS two times, a solution containing equol or equol glycosides diluted with D-MEM containing 1% bovine serum albumin to give the concentration described in Table 4 was added by 0.25 ml/well, and then the cell was cultured for 6 hours. After the supernatant was collected, the amount of glycerol was measured to determine the amount of the degraded lipid. After the supernatant was removed and the cells were washed with D-PBS three times, D-PBS containing 0.25% Triton X-100 was added to collect the cells, and then the cells were sonicated to give a cell-dissolving solution. The amount of protein of the sonicated cells was measured by Bradford method as in Experiment 3, and the amount of glycerol per cell protein representing degree of lipid degradation was shown in Table 3. The amount of glycerol was measured with “GLYCEROL REGENT A” (glycerol measurement kit commercialized by Zen-Bio, Inc.).

Mouse B16 melanoma cells = experiment: Test of whitening effect in vitro (melanin production); type: cell-based; design: key to Determination of whitening effect: −: Not changed; ±: Slightly whitened; +: A little whitened; ++: Significantly whitened; +++: Completely whitened; settings: for Determination of whitening effect: B16 melanoma cells, 4 days; for EC50: Mus musculus, B16, concentration giving half of the melanin production of the negative control, read-out: ED50 (the source's name); for Melanin Production: negative control 73.9
Protocol: Three equol glycoside preparation prepared in Experiment 1, i.e. the solution containing reaction products (a solution containing 4′-O-α-D-glucopyranosyl-S-equol and 7-O-α-D-glucopyranosyl-S-equol, hereinafter, described as “equol glycoside containing solution”), 4′-O-α-D-glucopyranosyl-S-equol and 7-O-α-D-glucopyranosyl-S-equol, and the equol used in Experiment 1 were used as test samples, and the following experiment was carried out to determine their whitening effect. Mouse B16 melanoma cells suspended in RPMI-1640 medium containing 10 v/v % fetal calf serum (hereinafter, abbreviated as “FCS”) were inoculated into “6-MULTIWELL MICROPLATE” (6-well microplate commercialized by Becton, Dickinson and Company) to give a cell concentration of 4×10^4 cells/well. After the cells were adhered to the bottom of well, the culture supernatant was removed. The cells were admixed with equol or any one of the three equol glycoside samples, diluted with the same medium to give the concentration described in Table 2, and then cultured at 37° C. in an atmosphere of 5 v/v % CO2 for four days. The cells were collected after admixed with trypsin-EDTA, washed once with Dulbecco's PBS (−) (hereinafter, abbreviated as “D-PBS”), and then dissolved in 1N-sodium hydroxide. A part of the solution was used to determine the amount of protein. The above alkaline solution was boiled for 30 minutes and the amount of melanin was measured. […] Also ED50 (the concentration of the test sample giving half of the melanin production in the cell cultured with negative control) is shown in Table 2. The medium alone was used as negative control, and koji acid, which has been used as a whitening substance for external dermatological composition, was used as positive control at the concentration described in Table 2 (0.5 to 2 mM), to evaluate the whitening effect. The evaluation of whitening effect and measurement of melanin, protein and equol glycosides were carried out as follows.
The melanin production was determined by comparing the absorbance at 450 nm (reference 650 nm) of each alkaline solution to that of melanin standard (Sigma Corporation), measured with “MICROPLATE READER M-Vmax” (commercialized by Wako Pure Chemical Industries Co., Ltd.).
The amount of protein was determined by Bradford method using human serum album bumin as standard.
The concentration of equol glycoside in the powdery product used in the following experiments were determined by the same method as used in Experiment 1, based on the molar absorption coefficient of equol measured at UV 280 nm.

[3] = system: mouse 3T3-L1 cell line (precursor lipocyte); experiment: Effect on differentiation of precursor lipocyte into lipocyte (oil red O staining); type: cell-based; settings: for Concentration enhancing differentiation of precursor lipocyte into mature lipocyte: Table 3, compared to control; for Enhancing effect on differentiation into lipocyte: with 10 μg/ml insulin, 12 days, relative absorbance, control = 100%, * p < 0.05 vs control
Protocol: It is known that mouse 3T3-L1 cell line (precursor lipocyte) differentiates into mature lipocyte when cultured in the presence of a differentiation inducer, and accumulates oil droplet in the cell according to the progress of differentiation. The mouse 3T3-Li cells were suspended in a medium, which is Dulbecco's MEM medium (hereinafter, abbreviated as “D-MEM”) supplemented with FCS (final concentration of 10 v/v %) and glucose (final concentration of 3 mg/ml), (hereinafter, described as “regular medium”) to give a cell concentration of 2.5×10^4 cells/well, and inoculated to “CELL CULTURE 24-MULTIWELL MICROPLATE” (24-well microplate coated with collagen type 1, commercialized by Becton, Dickinson and Company) by 1 ml/well. After the cells were cultured at 37° C. in an atmosphere of 5 v/v % CO2 for two days, the supernatant was removed and the remaining cells were admixed with a medium containing 10 μg/ml insulin and equol or equol glycosides dissolved in 50% ethanol, to give a concentration in Table 3, by 1 ml/well and then cultured for 12 days while replacing the medium every two or three days. After each well of the plate was washed with “D-PBS” three times, D-PBS containing 10% formalin was added by 0.2 ml/well, and then the cell was placed at 4° C. for one hour for fixation. After the fixing fluid was removed, a staining fluid of oilred O was added by 0.15 ml/well, and allowed to react at ambient temperature for 15 minutes to stain the lipid droplet in 3T3-L1 cell. After the staining fluid was removed, each well was washed with distilled water three times, and then the plate was dried. After the pigment in each well was dissolved in 0.4 ml of isopropanol, the absorbance of the resulting solution was measured at 490. The progress of the cell differentiation was expressed with relative absorbance to the absrobance of the cell cultured with control regarded as 100%.

[4] = system: skin of the upper arm of volunteers; settings: human, in vivo
estrogen-receptor = settings: Kenneth D. R. et al., Am. J. Clin. Nutr. 81, 1072-1079 (2005); cited from earlier work

Row | Compound | Enhancing effect on lipid hydrolysis ([2]; sample 5 μM) | Enhancing effect on lipid hydrolysis ([2]; sample 20 μM) | Enhancing effect on lipid hydrolysis ([2]; sample 80 μM) | Determination of whitening effect (Mouse B16 melanoma cells; sample concentration 5 μM) | Determination of whitening effect (Mouse B16 melanoma cells; sample concentration 10 μM) | Determination of whitening effect (Mouse B16 melanoma cells; sample concentration 20 μM) | Melanin Production (Mouse B16 melanoma cells; sample concentration 5 μM) [μg/mg-cell protein] | Melanin Production (Mouse B16 melanoma cells; sample concentration 10 μM) [μg/mg-cell protein] | Melanin Production (Mouse B16 melanoma cells; sample concentration 20 μM) [μg/mg-cell protein] | Concentration enhancing differentiation of precursor lipocyte into mature lipocyte [3] [µM] | Enhancing effect on differentiation into lipocyte ([3]; sample 5 μM) | Enhancing effect on differentiation into lipocyte ([3]; sample 20 μM) | further results
1 | OC[C@H]1O[C@H](Oc2ccc([C@@H]3COc4cc(O)ccc4C3)cc2)[C@H](O)[C@@H](O)[C@@H]1O [4′-O-α-D-glucopyranosyl-R-equol] |  |  |  |  |  |  |  |  |  |  |  |  | Condition of the skin after application [1]: no rough dry skin or rubor
2 | OCC1O[C@H](Oc2ccc([C@H]3COc4cc(O)ccc4C3)cc2)[C@@H](O)C(O)[C@@H]1O (stereo partly drawn) [4′-O-α-D-glucopyranosyl-S-equol] | 272 μg/mg-cell protein | 320* μg/mg-cell protein | 401* μg/mg-cell protein | + | + | ++ | 57.1 | 55.0 | 48.2 | 80 | 92% | 107% | EC50 (Mouse B16 melanoma cells): 38.8 µM; Enhancing effect on differentiation into lipocyte ([3]; sample 80 μM): 217* %; Condition of the skin after application [4]: no rough dry skin or rubor
3 | OC[C@H]1O[C@H](Oc2ccc3c(c2)OC[C@@H](c2ccc(O)cc2)C3)[C@H](O)[C@@H](O)[C@@H]1O [7-O-α-D-glucopyranosyl-R-equol] |  |  |  |  |  |  |  |  |  |  |  |  | Condition of the skin after application [1]: no rough dry skin or rubor
4 | OCC1O[C@H](Oc2ccc3c(c2)OC[C@H](c2ccc(O)cc2)C3)[C@@H](O)C(O)[C@@H]1O (stereo partly drawn) [7-O-α-D-glucopyranosyl-S-equol] | 265 μg/mg-cell protein | 312* μg/mg-cell protein | 374* μg/mg-cell protein | + | + | ++ | 54.8 | 48.4 | 43.0 | 80 | 96% | 101% | EC50 (Mouse B16 melanoma cells): 27.3 µM; Enhancing effect on differentiation into lipocyte ([3]; sample 80 μM): 253* %; Condition of the skin after application [4]: no rough dry skin or rubor
5 | Oc1ccc(C2COc3cc(O)ccc3C2)cc1 (centres unmarked) [Equol, equol] | 392* μg/mg-cell protein | 679* μg/mg-cell protein | 1119* μg/mg-cell protein | ++ | +++ | +++ | 36.8 | 30.7 | 29.8 | ≥ 5 | 194* % | 430* % | Concentration enhancing degradation of triglyceride accumulated in lipocyte ([2]; Table 3, compared to control): ≥ 5 µM; Whitening efficiency compared to positive control (Mouse B16 melanoma cells; equol 5 μM to 20 μM, Table 2): approximately the same as that of 1 mM koji acid
6 | O=c1cc(CO)occ1O [Koji cid, koji acid, reference compound] |  |  |  |  |  |  |  |  |  |  |  |  | Determination of whitening effect (Mouse B16 melanoma cells; sample concentration 1 mM): +; Determination of whitening effect (Mouse B16 melanoma cells; sample concentration 2 mM): ++; Determination of whitening effect (Mouse B16 melanoma cells; sample concentration 4 mM): +++; Melanin Production (Mouse B16 melanoma cells; sample concentration 1 mM): 57.1 μg/mg-cell protein; Melanin Production (Mouse B16 melanoma cells; sample concentration 2 mM): 47.5 μg/mg-cell protein; Melanin Production (Mouse B16 melanoma cells; sample concentration 4 mM): 37.7 μg/mg-cell protein
7 | S-equol |  |  |  |  |  |  |  |  |  |  |  |  | Estrogenic activity according to the affinity to the receptor (estrogen-receptor): higher than that of R-equol
